This note sets out measurements from patent publication US20230027985A1, “SUBSTITUTED HYDANTOINAMIDES AS ADAMTS7 ANTAGONISTS” (Bayer Aktiengesellschaft, priority 2019, published 2023).

The IC50 is the concentration at which inhibition is half-maximal.

The target in experiment [1] is T1, Purified recombinant ADAMTS-7 (rat prodomain/human catalytic domain, SEQ ID No. 01 or 02) (Homo sapiens, UniProt Q9UKP4).
T1 construct: rat ADAMTS-7 signal peptide + prodomain (rat 1-217, Q1EHB3) (N); 2xStrep tag (C); 6xHis tag (C); made in house; host or cells: Expi293 cells
T1 sequence (Q9UKP4 237-537): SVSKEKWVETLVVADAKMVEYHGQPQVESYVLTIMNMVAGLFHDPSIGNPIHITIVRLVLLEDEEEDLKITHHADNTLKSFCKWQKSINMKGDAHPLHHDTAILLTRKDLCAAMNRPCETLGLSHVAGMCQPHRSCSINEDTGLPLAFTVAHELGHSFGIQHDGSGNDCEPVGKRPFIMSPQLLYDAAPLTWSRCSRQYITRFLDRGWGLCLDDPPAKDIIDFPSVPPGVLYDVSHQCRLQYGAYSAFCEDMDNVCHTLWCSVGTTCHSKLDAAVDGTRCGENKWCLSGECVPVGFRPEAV
Put plainly: Assay for ADAMTS-7 enzymatic activity (FRET substrate cleavage). The experiment is classed as biochemical. As to conditions: FRET substrate SEQ ID No. 11, 120 min at 32° C.; read-out: ADAMTS7-IC50. The essentials: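 About 20 nM enzyme in 20 mM HEPES pH 8.0, 150 mM NaCl, 5 mM CaCl2, 0.004% Brij and 10 μM ZnCl2 was mixed with compound in DMSO and a QXL520-quenched FRET peptide from thrombospondin-1 (275-289). After 120 min at 32 °C, fluorescence was read at 485/520 nm. IC50 came from percent inhibition versus concentration.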

The target of a further experiment is T2, ADAMTS4 (Homo sapiens, UniProt O75173).
T2 construct: purchased R&D 4307-AD
T2 sequence (O75173 213-685 limits assumed): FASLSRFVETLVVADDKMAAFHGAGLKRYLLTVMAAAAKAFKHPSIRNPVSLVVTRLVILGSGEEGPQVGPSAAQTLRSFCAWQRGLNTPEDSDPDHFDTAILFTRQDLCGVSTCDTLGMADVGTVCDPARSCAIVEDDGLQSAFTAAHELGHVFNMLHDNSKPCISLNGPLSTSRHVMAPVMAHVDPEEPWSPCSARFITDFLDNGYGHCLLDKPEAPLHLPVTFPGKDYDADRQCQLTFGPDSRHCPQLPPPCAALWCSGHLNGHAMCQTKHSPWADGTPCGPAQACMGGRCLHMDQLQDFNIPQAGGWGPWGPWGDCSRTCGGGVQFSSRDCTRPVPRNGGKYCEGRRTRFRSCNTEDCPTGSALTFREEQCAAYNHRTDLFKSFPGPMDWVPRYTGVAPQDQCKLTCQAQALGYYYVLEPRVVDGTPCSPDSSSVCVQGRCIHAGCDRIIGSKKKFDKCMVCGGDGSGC
Kind of experiment: Selectivity assay for ADAMTS-7 modulators (FRET), ADAMTS4. Type of experiment: biochemical. As to conditions: 50 nM enzyme (R&D 4307-AD), 1 μM Dabcyl/Edans FRET substrate, 120 min at 32° C. In a few lines:
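Enzyme in 50 mM Tris pH 7.5, 150 mM NaCl, 10 mM CaCl2, 0.05% Brij, preincubated with compound in DMSO; reaction started with FRET substrate. Fluorescence increase read after 120 min at 32° C; IC50 from percent inhibition versus compound concentration.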

`CCCC1(CNC(=O)c2cnn(-c3ccc(F)cc3)n2)NC(=O)NC1=O` (stereo not drawn) [Example 73, ent-N-[(2,5-dioxo-4-propylimidazolidin-4-yl)methyl]-2-(4-fluorophenyl)-2H-1,2,3-triazole-4-carboxamide]: the IC50 in experiment [1] was 60 nM; against ADAMTS4, 5.1 µM.

For the compound `O=C1NC(=O)C(CNC(=O)c2cnn(-c3ccc(F)cc3)n2)(C2CCCC2)N1` (stereo not drawn) [Example 74, ent-N-[(4-cyclopentyl-2,5-dioxoimidazolidin-4-yl)methyl]-2-(4-fluorophenyl)-2H-1,2,3-triazole-4-carboxamide], the figures for the IC50 (in experiment [1]; on ADAMTS4) were 33 nM and 5.9 µM, respectively.

Turning to `O=C1NC(=O)C(CNC(=O)c2cnn(-c3ccc(F)cc3)n2)(C2CCCCC2)N1` (stereo not drawn) [Example 75, ent-N-[(4-cyclohexyl-2,5-dioxoimidazolidin-4-yl)methyl]-2-(4-fluorophenyl)-2H-1,2,3-triazole-4-carboxamide], the values for the IC50 (in experiment [1]; on ADAMTS4) were 14 nM and 4.1 µM, respectively.

Regarding `CC(C)C1(CNC(=O)c2cnn(-c3ccc(F)cc3)n2)NC(=O)NC1=O` (stereo not drawn) [Example 76, ent-N-[(2,5-dioxo-4-(propan-2-yl)imidazolidin-4-yl)methyl]-2-(4-fluorophenyl)-2H-1,2,3-triazole-4-carboxamide], the IC50 amounted to 8 nM in experiment [1] and 2.77 µM against ADAMTS4.

With `O=C1NC(=O)C(CNC(=O)c2cnn(-c3ccc(F)cc3)n2)(C2CCC2)N1` (stereo not drawn) [Example 77, ent-N-[(4-cyclobutyl-2,5-dioxoimidazolidin-4-yl)methyl]-2-(4-fluorophenyl)-2H-1,2,3-triazole-4-carboxamide], the IC50 in experiment [1] amounted to 24 nM; on ADAMTS4, 4.38 µM.

In the case of `CCCCC1(CNC(=O)c2cnn(-c3ccccc3)n2)NC(=O)NC1=O` (stereo not drawn) [Example 78, ent-N-[(4-butyl-2,5-dioxoimidazolidin-4-yl)methyl]-2-phenyl-2H-1,2,3-triazole-4-carboxamide], the IC50 in experiment [1] turned out to be 191 nM; at ADAMTS4, 19 µM.

As to `O=C1NC(=O)C(CNC(=O)c2cnn(-c3ccccc3)n2)(C2CCC2)N1` (stereo not drawn) [Example 79, ent-N-[(4-cyclobutyl-2,5-dioxoimidazolidin-4-yl)methyl]-2-phenyl-2H-1,2,3-triazole-4-carboxamide], the figures for the IC50 (in experiment [1]; against ADAMTS4) were 78 nM and 11 µM, respectively.

As for `O=C1NC(=O)C(CNC(=O)c2nc(-c3ccccc3)no2)(CC2CC2)N1` (stereo not drawn) [Example 80, ent-N-[(4-(cyclopropylmethyl)-2,5-dioxoimidazolidin-4-yl)methyl]-3-phenyl-1,2,4-oxadiazole-5-carboxamide], the 50% inhibitory concentration (IC50) in experiment [1] is 250 nM; at ADAMTS4, 2.9 µM.

Take `CCCCC1(CNC(=O)c2cnn(-c3ccc(F)cc3)n2)NC(=O)NC1=O` (stereo not drawn) [Example 82]: the figures for the IC50 (in experiment [1]; on ADAMTS4) were 48 nM and 3.1 µM, respectively.

As to `O=C1NC(=O)C(CNC(=O)c2cnn(-c3ccccc3)n2)(C2CCCC2)N1` (stereo not drawn) [Example 83, ent-N-[(4-cyclopentyl-2,5-dioxoimidazolidin-4-yl)methyl]-2-phenyl-2H-1,2,3-triazole-4-carboxamide], the IC50 amounted to 120 nM in experiment [1] and 11 µM against ADAMTS4.

`O=C1NC(=O)C(CNC(=O)c2cnn(-c3ccc(F)cc3F)n2)(C2CCC2)N1` (stereo not drawn) [Example 86, ent-N-{[4-cyclobutyl-2,5-dioxoimidazolidin-4-yl]methyl}-2-(2,4-difluorophenyl)-2H-1,2,3-triazole-4-carboxamide]: the IC50 in experiment [1] was determined as 63 nM; against ADAMTS4, 8.5 µM.

Regarding `O=C1NC(=O)C(CNC(=O)c2cnn(-c3cc(F)c(F)c(F)c3)n2)(C2CCC2)N1` (stereo not drawn) [Example 90, ent-N-[(4-cyclobutyl-2,5-dioxoimidazolidin-4-yl)methyl]-2-(3,4,5-trifluorophenyl)-2H-1,2,3-triazole-4-carboxamide], the IC50 was determined as 16 nM in experiment [1] and 3.1 µM at ADAMTS4.

On to `O=C1NC(=O)C(CNC(=O)c2cnn(-c3cccc(F)c3)n2)(C2CCC2)N1` (stereo not drawn) [Example 93, ent-N-[(4-cyclobutyl-2,5-dioxoimidazolidin-4-yl)methyl]-2-(3-fluorophenyl)-2H-1,2,3-triazole-4-carboxamide], for which the IC50 in experiment [1] worked out at 8 nM; on ADAMTS4, 2.2 µM.

`O=C1NC(=O)C(CNC(=O)c2cnn(-c3ccc(F)c(F)c3)n2)(C2CCC2)N1` (stereo not drawn) [Example 94, ent-N-[(4-cyclobutyl-2,5-dioxoimidazolidin-4-yl)methyl]-2-(3,4-difluorophenyl)-2H-1,2,3-triazole-4-carboxamide]: the values for the half-inhibitory concentration (IC50) (in experiment [1]; against ADAMTS4) were 6 nM and 0.89 µM, respectively.

With `O=C1NC(=O)[C@](CNC(=O)c2cnn(-c3cc(F)c(F)c(F)c3)n2)(C2CC2)N1` [Example 98, N-{[(4R)-4-cyclopropyl-2,5-dioxoimidazolidin-4-yl]methyl}-2-(3,4,5-trifluorophenyl)-2H-1,2,3-triazole-4-carboxamide], the IC50 in experiment [1] is 25 nM; at ADAMTS4 it was 1.1 µM.

`O=C1NC(=O)[C@](CNC(=O)c2cnn(-c3ncccc3F)n2)(C2CC2)N1` [Example 101, N-{[(4R)-4-cyclopropyl-2,5-dioxoimidazolidin-4-yl]methyl}-2-(3-fluoropyridin-2-yl)-2H-1,2,3-triazole-4-carboxamide]: the IC50 worked out at 7 nM in experiment [1] and 14 µM against ADAMTS4.

Turning to `CCC(C)C1(CNC(=O)c2cnn(-c3ccc(F)cc3)n2)NC(=O)NC1=O` (stereo not drawn) [Example 102, diamix-N-[(4-sec-butyl-2,5-dioxoimidazolidin-4-yl)methyl]-2-(4-fluorophenyl)-2H-1,2,3-triazole-4-carboxamide], the IC50 in experiment [1] amounted to 62 nM; against ADAMTS4, 2.9 µM.

Turning to `O=C1NC(=O)[C@](CNC(=O)c2cnn(-c3nc4ccccc4s3)n2)(C2CC2)N1` [Example 105, 2-(1,3-benzothiazol-2-yl)-N-{[(4R)-4-cyclopropyl-2,5-dioxoimidazolidin-4-yl]methyl}-2H-1,2,3-triazole-4-carboxamide], the IC50 in experiment [1] is 190 nM; at ADAMTS4 it was 11 µM.

As to `O=C1NC(=O)[C@](CNC(=O)c2cnn(-c3ccc(OC(F)(F)F)cc3)n2)(C2CC2)N1` [Example 106, N-{[(4R)-4-cyclopropyl-2,5-dioxoimidazolidin-4-yl]methyl}-2-[4-(trifluoromethoxy)phenyl]-2H-1,2,3-triazole-4-carboxamide], the results for the IC50 (in experiment [1]; against ADAMTS4) were 190 nM and greater than 50 µM, respectively.

With `O=C1NC(=O)C(CNC(=O)c2cnn(-c3ccc(F)cc3)n2)(c2nccs2)N1` (stereo not drawn) [Example 114, ent-N-{[2,5-dioxo-4-(1,3-thiazol-2-yl)imidazolidin-4-yl]methyl}-2-(4-fluorophenyl)-2H-1,2,3-triazole-4-carboxamide], the IC50 in experiment [1] worked out at 15 nM; against ADAMTS4, 1.4 µM.

For `CC(C)C1(CNC(=O)c2cnn(-c3cc(F)c(F)c(F)c3)n2)NC(=O)NC1=O` (stereo not drawn) [Example 117, ent-N-[(4-isopropyl-2,5-dioxoimidazolidin-4-yl)methyl]-2-(3,4,5-trifluorophenyl)-2H-1,2,3-triazole-4-carboxamide], the values for the IC50 (in experiment [1]; against ADAMTS4) were 20 nM and 3.3 µM, respectively.

As for `O=C1NC(=O)[C@](CNC(=O)c2cnn(-c3cnsc3)n2)(C2CC2)N1` [Example 132, N-{[(4R)-4-cyclopropyl-2,5-dioxoimidazolidin-4-yl]methyl}-2-(1,2-thiazol-4-yl)-2H-1,2,3-triazole-4-carboxamide], the IC50 came to 230 nM in experiment [1] and 7.4 µM at ADAMTS4.

On to `O=C1NC(=O)[C@](CNC(=O)c2cnn(-c3ncc(F)cc3F)n2)(C2CC2)N1` [Example 134, N-{[(4R)-4-cyclopropyl-2,5-dioxoimidazolidin-4-yl]methyl}-2-(3,5-difluoropyridin-2-yl)-2H-1,2,3-triazole-4-carboxamide], for which the values for the IC50 (in experiment [1]; at ADAMTS4) were 190 nM and 6.2 µM, respectively.

As to `O=C1NC(=O)C(CNC(=O)c2cnn(-c3ccc(F)cc3)n2)(c2ncsc2C(F)(F)F)N1` (stereo not drawn) [Example 136, ent-N-({2,5-dioxo-4-[5-(trifluoromethyl)-1,3-thiazol-4-yl]imidazolidin-4-yl}methyl)-2-(4-fluorophenyl)-2H-1,2,3-triazole-4-carboxamide], the IC50 in experiment [1] was 27 nM; on ADAMTS4 it was 3.5 µM.
